Reference: patent publication US6555531B1, “Weight promoting composition, method, and product” (Pherin Pharmaceuticals, Inc., priority 1999, dated 2003)
“And” between values parts separate entries of the source, which are not always exact repeats. Identical values can stand only once. “Also recorded” adds a separate entry of the source.

Assays:
[1] = Study CL004: follow-on appetite study; format: in vivo, human; settings: one dose every 10 minutes for 6 hours, interim findings
Procedure: Study CL004. Study CL004 was conducted as a follow-on to the surprising appetite results of study CL003, and was designed to provide a more focused investigation of the effects of (17β)19-norpregna-1,3,5(10)-trien-3-ol on appetite. […] Study CL004 was conducted after study CL003 had been completed.

[2] = tested on: gonadotropin secretion; assay: Study CL003: gonadotropin secretion study in healthy female volunteers; format: in vivo, human
Procedure: Study CL003 was designed to investigate possible effects of (17β)19-norpregna-1,3,5(10)-trien-3-ol on gonadotropin secretion in healthy female volunteers. Because gonadotropins typically are secreted in a pulsatile pattern with 4-6 peaks per day, (17β)19-norpregna-1,3,5(10)-trien-3-ol was administered at 10-minute intervals over a 6-hour period. This timing was provided in order to determine whether (17β)19-norpregna-1,3,5(10)-trien-3-ol affected the pattern of pulsatility and/or the magnitude of the gonadotropin release. […] To follow up on these anecdotal reports, the investigators gave the subjects a questionnaire one month after completing their participation in the study to assess this effect of (17β)19-norpregna-1,3,5(10)-trien-3-ol in a systematic fashion.

[3] = Study CL006: mealtime dosing in metabolic unit, appetite and food intake; format: in vivo, human; settings: some participants, dosing with mealtimes, informal analysis of blinded data
From the text: Study CL006. Study CL006 was designed to provide an evaluation of a more clinically meaningful (17β)19-norpregna-1,3,5(10)-trien-3-ol dosing regimen, as well as to provide a more controlled environment in which to evaluate appetite and food intake effects. In this study, subjects received (17β)19-norpregna-1,3,5(10)-trien-3-ol in association with mealtimes, and they remained in a metabolic unit throughout the study.

[4] = tested on: VNO; assay: In Vivo Study CL001: electrovomerogram (EVG), autonomic parameters and EEG after VNO stimulation; design: species or system human; key to performance summary: EDA / performance summary: α-CA / performance summary: EVG: + indicates a moderate increase in activity; ++ indicates a substantial increase in activity; settings: for EVG, difference from the response to placebo: 200 pg vapor pulse to VNO; for mean peak amplitude of the EVG (electrovomerogram) response: single intranasal dose
Procedure: In Vivo Study CL001. This study was conducted in healthy male and female volunteers each tested with a single dose of (17β)19-norpregna-1,3,5(10)-trien-3-ol. The mean peak amplitude of the EVG (electrovomerogram) response to intranasal administration of (17β)19-norpregna-1,3,5(10)-trien-3-ol, reported as the magnitude of the difference from the response to placebo, was […] (13.9 mV in women and 5.3 mV in men difference from the response to placebo). […] In addition, the peak amplitude of the response in women was greater than that in men. Methods: For VNO stimulation, a 10^−8 M solution of (17β)19-norpregna-1,3,5(10)-trien-3-ol vomeropherin was prepared in propylene glycol (PG). A vapor pulse (duration: 2 seconds) of the vomeropherin was obtained bubbling clean air through the solution (air flow: 3 mL/min.). This delivered an estimated quantity of 200 pg of (17β)19-norpregna-1,3,5(10)-trien-3-ol to the VNO. The control was a pulse of PG alone in vapor form. Processing and analysis of the results was done off-line. The amplitude or frequency of the different parameters was measured. The mean and standard deviation of the mean were obtain for all parameters 5 minutes after stimulation with control, and (17β)19-norpregna-1,3,5(10)-trien-3-ol. The significance of the results was studied using the paired, two-tailed student t-test, and analysis of variance.

[5] = Study CL005: food consumption and appetite study; format: in vivo, human; settings: same dosing regimen; not after placebo; preliminary data analysis
From the text: Study CL005. Study CL005 was designed to investigate in detail the effects of (17β)19-norpregna-1,3,5(10)-trien-3-ol -on food consumption in studies CL003 and CL004. The (17β)19-norpregna-1,3,5(10)-trien-3-ol dosing regimen was the same as had been used for the previous studies. Food intake and appetite were examined in this study in great detail. Subjects kept records of their appetite, food intake, etc., over a 3-4 month period.

[6] = tested on: VNO cells; assay: In Vitro Study CL002: inward current in VNO cells; format: cell-based, human; settings: for mean peak inward current: 10^−5 M
Procedure: In Vitro Study CL002. This study was conducted using VNO cells that had been collected from healthy male and female volunteers. […] In addition, the magnitude of the response was greater in cells from women than in cells from men.

[7] = dosed at 10-minute intervals over 6 hours

For `CC[C@H]1CC[C@H]2[C@@H]3CCc4cc(O)ccc4[C@H]3CC[C@]12C` [(17β)19-norpregna-1,3,5(10)-trien-3-ol], the appetite ([1]; all subjects, not after placebo) was “increase in appetite for at least one week”, the body weight [1] was “persistent increase in body weight” and the “appetite (questionnaire one month after study)” value ([2]; all subjects) was “large increase in appetite”. The gonadotropin secretion [2, 7] was “No consistent changes”, the “menstrual cycle pattern or ovulation” value [2, 7] was “no changes” and the body weight [3] was “treatment-related increase”. The food intake [3] was “treatment-related increase”, the “activity in the VNO” value ([4]; both female and male subjects) was “active” and the “EDA compared with placebo” value ([4]; eight female subjects, 200 pg, p<0.05) was “increased significantly from placebo; also recorded: increased EDA”. The “Other autonomic parameters and EMG” value ([4]; female subjects) was “remained unchanged”, the “performance summary: EDA” value ([4]; female subjects) was “+” and the “performance summary: EVG” value ([4]; female subjects) was “++”. The “performance summary: α-CA” value ([4]; female subjects) was “++”, the “Respiratory frequency (RF), difference from placebo” value ([4]; female subjects, 200 pg) was “+3.0 cycles/min” and the “alpha-cortical activity (α-CA), difference from placebo” value ([4]; female subjects, 200 pg) was “+35.8 μV^2/Hz”. For the same compound, the “beta-cortical activity (β-CA), difference from placebo” value ([4]; female subjects, 200 pg) was −2.2 μV^2/Hz, the “body temperature (BT), difference from placebo” value ([4]; female subjects, 200 pg) was “+0.2 °C” and the “cardiac frequency (CF), difference from placebo” value ([4]; female subjects, 200 pg) was 0 beats/min. For the same compound, the “electromyogram (EMG), difference from placebo” value ([4]; female subjects, 200 pg) was 0 Hz, the “EVG, difference from the response to placebo” value ([4]; female subjects) was 13.9 mV and 13.8 mV and the “electrodermal activity (EDA), difference from placebo” value ([4]; female subjects, 200 pg, 5 minutes after stimulation) was “+109.4 μS”. The “Alpha rhythm recorded from T4A2 compared with placebo” value ([4]; female subjects, p<0.05) was “increased significantly from placebo”, the “beta rhythm in CA2 compared with placebo” value ([4]; female subjects, p<0.05) was “decreased beta rhythm” and the “performance summary: EDA” value ([4]; male subjects) was “+”. The “performance summary: EVG” value ([4]; male subjects) was “+”, the “Body temperature compared with placebo” value ([4]; male subjects, p<0.05) was “decreased” and the “alpha rhythm compared with placebo” value ([4]; male subjects, p<0.05) was “decreased”. The “Other biological parameters” value ([4]; males) was “did not change significantly”, the “EVG, difference from the response to placebo” value ([4]; men) was 5.3 mV and the “EDA compared with placebo” value ([4]; men, p<0.05) was “increased EDA”. The “EVG response compared with placebo” value ([4]; men, p<0.05) was “significantly greater than that to placebo; also recorded: significantly different from placebo”, the “mean peak amplitude of the EVG (electrovomerogram) response” value ([4]; men) was 30 mV and the “BT, difference from placebo” value ([4]; six male subjects) was −1.2. For the same compound, the “CF, difference from placebo” value ([4]; six male subjects) was 0, the “EDA, difference from placebo” value ([4]; six male subjects) was “+79.1” and the “EMG, difference from placebo” value ([4]; six male subjects) was 0. For the same compound, the “EVG, difference from placebo” value ([4]; six male subjects) was “+5.3”, the “RF, difference from placebo” value ([4]; six male subjects) was −1.7 and the “α-CA, difference from placebo” value ([4]; six male subjects) was −11.7. For the same compound, the “EVG response compared with placebo” value ([4]; women) was “significantly greater than that to placebo; also recorded: robust mean EVG; also recorded: large EVG”, the “mean peak amplitude of the EVG (electrovomerogram) response” value ([4]; women) was 50 mV and the appetite [5] was “perceived increase in appetite for at least one week”. For the same compound, the “concentration of peak effect (inward current)” value ([6]; VNO cells) was 10^−5 M, the “concentration at which inward current response was significantly different from the control response” value ([6]; VNO cells from men and women) was ≥ 10^−7 M and the “response of VNO cells to application” value ([6]; cells from both men and women, magnitude dose dependent) was “development of an inward current”. The “mean peak inward current” value ([6]; cells from men) was 55 pA and the “mean peak inward current” value ([6]; cells from women) was 96 pA.
